Assay results reported in patent US8188059B2, “Compounds and methods for modulating expression of GCGR” (Isis Pharmaceuticals, Inc., priority 2006, dated 2012).
Strand notation (5' to 3'): a small letter for the sugar, then the base; units joined by * are phosphorothioate-linked, units joined directly phosphodiester-linked; [ ] holds rarer units or linkages, { } end groups; capitals alone tell only the bases. e = 2'-O-(2-methoxyethyl) (MOE); k = constrained ethyl (cEt); [5mC] = 5-methylcytosine; d = 2'-deoxy (DNA)

How the values were obtained:
ApoB mRNA [1] = assay: ApoB mRNA in liver of Balb/c mice, single i.p. dose 8, 4, 2 or 1 μmol/kg, with ED50 (Example 28, Table 92); type: in vivo, mouse; conditions: Balb/c mice, relative to saline
Method: The short antisense compounds tested were ISIS 387462 and ISIS 398296. Each dose group consisted of four animals. A 5-10-5 MOE gapmer was used for a control treatment. Mice were sacrificed approximately 48 hours following the final dose. Liver tissue was collected for RNA isolation, and blood was collected for serum chemistry analyses. ApoB mRNA levels were measured by real-time PCR as described herein. ApoB mRNA levels were normalized to RNA levels as determined by RIBOGREEN, and are presented in Table 92 as percent inhibition relative to ApoB mRNA levels in saline-treated control animals.
At the 8 umol/kg dose, ApoB inhibition by the short antisense compounds was greater than observed with a 5-10-5 MOE gapmer at an equivalent dose. […] Triglycerides were reduced at the highest dose.

ApoB mRNA [2] = assay: ApoB mRNA in liver of Balb/c mice, BNA short antisense compounds, i.p. twice per week for three weeks (Example 26, Table 89); type: in vivo, mouse; conditions: relative to saline
Method: The short antisense compounds shown in Table 88 were tested for their effects in vivo. […] A 5-10-5 MOE gapmer was used for a control treatment. Mice were sacrificed approximately 48 hours following the final dose. Liver tissue was collected for RNA isolation, and blood was collected for serum chemistry analyses. ApoB mRNA levels were measured by real-time PCR as described herein. ApoB mRNA levels were normalized to RNA levels as determined by RIBOGREEN, and are presented in Table 89 as percent inhibition relative to ApoB mRNA levels in saline-treated control animals.

PTP1B mRNA [3] = assay: Antisense inhibition of human PTP1B in HuVEC cells at 3 nM (Example 23, Table 84); type: cell-based
Method: Short antisense compounds targeted to a PTP1B nucleic acid were tested for their effects on PTP1B mRNA in vitro. Cultured HuVEC cells at a density of 5000 cells per well in a 96-well plate were treated as described herein with 3 nM of short antisense compound. After the treatment period, RNA was isolated from the cells and PTP1B mRNA levels were measured by quantitative real-time PCR, as described herein. PTP1B mRNA levels were adjusted according to total RNA content as measured by RIBOGREEN®. Results are presented as percent inhibition of PTP1B (% Inhib), relative to untreated control cells.

PTP1B mRNA [4] = assay: Antisense inhibition of human PTP1B in HepG2 cells at 25 nM (Example 24, Table 85); type: cell-based
Method: Short antisense compounds targeted to a PTP1B nucleic acid were tested for their effects on PTP1B mRNA in vitro. Cultured HepG2 cells at a density of 10000 cells per well in a 96-well plate were treated with 25 nM of antisense oligonucleotide. After the treatment period, RNA was isolated from the cells and PTP1B mRNA levels were measured by quantitative real-time PCR, as described herein. PTP1B mRNA levels were adjusted according to total RNA content as measured by RIBOGREEN®. Results are presented as percent inhibition (% Ihib) of PTP1B, relative to untreated control cells.

PTP1B mRNA [5] = assay: Dose response for human PTP1B in HuVEC cells, Primer Probe Set 198 (Example 25, Table 86); type: cell-based
Method: (§1) Human vascular endothelial (HuVEC) cells were plated at a density of 5000 cells per well and treated as described herein with nM concentrations of short antisense compound as indicated in Table 86. After the treatment period, RNA was isolated from the cells and PTP1B mRNA levels were measured by quantitative real-time PCR, as described herein. PTP1B mRNA levels were adjusted according to total RNA content as measured by RIBOGREEN®. Two different human PTP1B primer probe sets were used to measure mRNA levels. Results with Primer Probe Set (PPS) 198 are shown in Table 86, and results with Primer Probe Set (PPS) 3000 are shown in Table 87. Results are presented as percent inhibition of PTP1B mRNA expression relative to untreated control cells.

PTP1B mRNA [6] = assay: Dose response for human PTP1B in HuVEC cells, Primer Probe Set 3000 (Example 25, Table 87); type: cell-based
Method: as §1

mouse SGLT2 mRNA [7] = assay: Mouse SGLT2 mRNA levels in kidney, MOE versus Methyleneoxy BNA gapmers, Balb/c mice (Example 15, Table 69); type: in vivo
Method: The effect of ISIS 379692 1-10-1 MOE gapmer and ISIS 388625 2-8-2 MOE gapmer are compared with the effect of ISIS 392170 1-10-1 Methyleneoxy BNA Gapmer and ISIS 392173 2-8-2 Methyleneoxy BNA Gapmer (see Table 69) on mouse SGLT2 mRNA levels in vivo. Data are taken from three experiments in which male 6-week old Balb/c mice were dosed twice per week for three weeks with 5, 25 and 125 nmol/kg of either the ISIS 379692 1-10-1 MOE gapmer or the ISIS 388625 2-8-2 MOE gapmer given by intraperitoneal injection. Mice were sacrificed 48 hours following last administration and evaluated for SGLT2 mRNA levels in kidney. Target levels were determined by RT, real-time PCR as described by other examples herein. PCR results were normalized to an internal ISIS control. The data are expressed as percent change (“+” indicates an increase, “−” indicates a decrease) relative to saline treated animals and are illustrated in Table 69.

[8] = HbA1c status in ZDF rats (Example 16, Table 72); type: in vivo, rat; conditions: compared to PBS and control treated animals
Method: (§2) ISIS 388625, 388626 and control oligo ISIS 388628 were analyzed for their effect on ZDF rat plasma glucose levels and HbA1c. The leptin receptor deficient Zucker diabetic fatty (ZDF) rat is a useful model for the investigation of type 2 diabetes. Diabetes develops spontaneously in these male rats at ages 8-10 weeks, and is associated with hyperphagia, polyuria, polydipsia, and impaired weight gain, symptoms which parallel the clinical symptoms of diabetes (Phillips M S, et al., 1996, Nat Genet. 13, 18-19). Six week old ZDF rats were injected intraperitoneally with short antisense compound at a dose of 400 nM/kg once a week for twelve weeks. Data are illustrated in Tables 71 and 72.

mouse SGLT2 mRNA [9] = assay: Mouse SGLT2 mRNA levels in kidney, additional 1-10-1 and 2-8-2 MOE gapmers, Balb/c mice (Example 15, Table 68); type: in vivo
dog SGLT2 mRNA = assay: Dog SGLT2 mRNA levels in kidney, beagle dogs, subcutaneous (Example 17, Table 73); type: in vivo; conditions: for % change in SGLT2 expression relative to saline: subcutaneous twice weekly, day 46
Method: ISIS 388625 is a 2-8-2 MOE Gapmer with sequence […] (SEQ ID NO: 246) (e.g. see Table 71). The effect of ISIS 388625 on dog SGLT2 mRNA levels. Data are taken from two dosing groups in which a total of nine male beagle dogs were dosed with either one or ten mg/kg/week of ISIS or saline given by subcutaneous injection twice weekly. On day 46 of the study all dogs were sacrificed and evaluated for SGLT2 levels in kidney. Target levels were determined by quantitative RT, real-time PCR as described by other examples herein. PCR results were normalized to an internal ISIS control.

[10] = Plasma glucose in ZDF rats, once a week for twelve weeks (Example 16, Table 71); type: in vivo, rat; conditions: compared to PBS and control treated animals
Method: as §2

rat SGLT2 mRNA = assay: Rat SGLT2 mRNA levels in kidney, ISIS 379692 and ISIS 388625, Sprague-Dawley rats (Example 15, Table 70); type: in vivo; conditions: i.p. twice per week for three weeks
Method: The effect of ISIS 379692 1-10-1 MOE gapmer and ISIS 388625 MOE 2-8-2 gapmer (see Table 70) on rat SGLT2 mRNA levels in vivo. […] Rats were sacrificed 48 hours following last administration and evaluated for SGLT2 levels in kidney. Target levels were determined by RT, real-time PCR as described by other examples herein. PCR results were normalized to an internal ISIS control.

[11] = Standard glucose tolerance test and urinary glucose excretion in dog (Example 17); type: in vivo
Source text: Even greater reduction can be achieved at slightly higher doses. […] Peak plasma glucose levels were decreased by over 50% on average and the subsequent drop in glucose was lessened compared to saline controls in a standard glucose tolerance test.

[12] = 0.1 umol/kg i.p. twice per week for three weeks

Substance: 398296 (antisense kG*kG*dT*dA*dC*dA*dT*dG*dG*dA*dA*dG*kT*kC) [compound 398296]
- % Inhib (ApoB mRNA in liver) (ApoB mRNA [1]; single i.p. dose 1 umol/kg): 19%
- % Inhib (ApoB mRNA in liver) (ApoB mRNA [1]; single i.p. dose 2 umol/kg): 54%
- % Inhib (ApoB mRNA in liver) (ApoB mRNA [1]; single i.p. dose 4 umol/kg): 81%
- % Inhib (ApoB mRNA in liver) (ApoB mRNA [1]; single i.p. dose 8 umol/kg): 97%
- % Inhib (ApoB mRNA in liver) (ApoB mRNA [2]; [12]): 17%
- % Inhib (ApoB mRNA in liver) (ApoB mRNA [2]; 0.32 umol/kg i.p. twice per week for three weeks): 35%
- % Inhib (ApoB mRNA in liver) (ApoB mRNA [2]; 1 umol/kg i.p. twice per week for three weeks): 80%
- % Inhib (ApoB mRNA in liver) (ApoB mRNA [2]; 3.2 umol/kg i.p. twice per week for three weeks): 98%

Substance: 399301 (antisense eG*eT*dG*dT*dG*d[5mC]*dA*d[5mC]*dA*d[5mC]*dA*dG*e[5mC]*eT) [compound 399301]
- % Inhib (PTP1B mRNA) (PTP1B mRNA [3]): 55%
- % Inhib (PTP1B mRNA) (PTP1B mRNA [4]): 43%
- % Inhibition of PTP1B mRNA (PTP1B mRNA [5]; PPS 198, 1.11 nM): 8%
- % Inhibition of PTP1B mRNA (PTP1B mRNA [5]; PPS 198, 3.33 nM): 63%
- % Inhibition of PTP1B mRNA (PTP1B mRNA [5]; PPS 198, 10.0 nM): 91%
- % Inhibition of PTP1B mRNA (PTP1B mRNA [5]; PPS 198, 30.0 nM): 97%
- % Inhibition of PTP1B mRNA (PTP1B mRNA [6]; PPS 3000, 1.11 nM): 16%
- % Inhibition of PTP1B mRNA (PTP1B mRNA [6]; PPS 3000, 3.33 nM): 65%
- % Inhibition of PTP1B mRNA (PTP1B mRNA [6]; PPS 3000, 10.0 nM): 93%
- % Inhibition of PTP1B mRNA (PTP1B mRNA [6]; PPS 3000, 30.0 nM): 99%

Substance: 404137 (antisense e[5mC]*eA*dG*dT*dG*dT*dG*d[5mC]*dA*d[5mC]*dA*d[5mC]*eA*eG) [compound 404137]
- % Inhib (PTP1B mRNA) (PTP1B mRNA [3]): 76%
- % Inhib (PTP1B mRNA) (PTP1B mRNA [4]): 71%

Substance: 404138 (antisense e[5mC]*eT*d[5mC]*dA*dG*dT*dG*dT*dG*d[5mC]*dA*d[5mC]*eA*e[5mC]) [compound 404138]
- % Inhib (PTP1B mRNA) (PTP1B mRNA [3]): 76%
- % Inhib (PTP1B mRNA) (PTP1B mRNA [4]): 86%

Substance: 404139 (antisense eG*eT*dG*d[5mC]*dA*d[5mC]*dA*d[5mC]*dA*dG*d[5mC]*dT*eG*eA) [compound 404139]
- % Inhib (PTP1B mRNA) (PTP1B mRNA [3]): 80%
- % Inhib (PTP1B mRNA) (PTP1B mRNA [4]): 45%

Substance: 404140 (antisense eG*e[5mC]*dA*d[5mC]*dA*d[5mC]*dA*dG*d[5mC]*dT*dG*dA*eG*eG) [compound 404140]
- % Inhib (PTP1B mRNA) (PTP1B mRNA [3]): 73%
- % Inhib (PTP1B mRNA) (PTP1B mRNA [4]): 93%

Substance: ISIS 388625: SGLT2; TGTTCCAGCCCA 2-8-2 MOE Gapmer (antisense eT*eG*dT*dT*d[5mC]*d[5mC]*dA*dG*d[5mC]*d[5mC]*e[5mC]*eA)
- SGLT2 mRNA, percent change relative to saline treated animals (mouse SGLT2 mRNA [7]; 5 nmol/kg i.p. twice per week for three weeks): −18 percent change
- SGLT2 mRNA, percent change relative to saline treated animals (mouse SGLT2 mRNA [7]; 25 nmol/kg i.p. twice per week for three weeks): −47 percent change
- SGLT2 mRNA, percent change relative to saline treated animals (mouse SGLT2 mRNA [7]; 125 nmol/kg i.p. twice per week for three weeks): −70 percent change
- HbA1C [8]: significantly reduced
- % change in SGLT2 expression relative to saline (mouse SGLT2 mRNA [9]; 0.02 umol/kg i.p. twice per week for three weeks): −65%
- % change in SGLT2 expression relative to saline (mouse SGLT2 mRNA [9]; [12]): −88%
- % change in SGLT2 expression relative to saline (mouse SGLT2 mRNA [9]; 0.5 umol/kg i.p. twice per week for three weeks): −90%
- reduction of SGLT2 mRNA / inhibition of the expression of SGLT2 (dog SGLT2 mRNA; 1 mg/kg/wk dose): greater than 80%
- % change in SGLT2 expression relative to saline (dog SGLT2 mRNA; 1 mg/kg/wk): −85%
- % change in SGLT2 expression relative to saline (dog SGLT2 mRNA; 10 mg/kg/wk): −95%
- Plasma glucose levels [10]: significantly reduced
- % change in SGLT2 expression relative to saline (rat SGLT2 mRNA; dose 3.125 umol/kg (head)): +25%
- % change in SGLT2 expression relative to saline (rat SGLT2 mRNA; dose 12.5 umol/kg (head)): −15%
- % change in SGLT2 expression relative to saline (rat SGLT2 mRNA; dose 50 umol/kg (head)): −65%
- % change in SGLT2 expression relative to saline (rat SGLT2 mRNA; dose 200 umol/kg (head)): −80%
- Urinary glucose excretion [11]: increased
- glucose tolerance [11]: improved glucose tolerance
- Peak plasma glucose levels decreased, on average ([11]; standard glucose tolerance test, compared to saline controls): over 50%
